We go through 23 molecules from patent publication US12344610B2, “APOL1 inhibitors and methods of use” (Maze Therapeutics, Inc., priority 2022, dated 2025).

Read-outs that look alike come from different tables or passages of the source.

Assay [1] concerns HEK293 clonal cell line overexpressing APOL1 G1. Kind of assay: APOL1 G1 HEK293 cell rescue assay (Example B3). In kind it is cell-based. As to conditions: geometric mean of at least 2 runs, † = single run, ¥ = concentration at 50% rescue estimated (no sigmoidal curve). Summed up: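 Rescue of cell death caused by APOL1 G1 overexpression was measured in a clonal HEK293 line. Compounds were tested in duplicate on one plate, and EC50s were geometric means across at least two runs on different days. Some values are estimated 50%-rescue concentrations where curve fitting failed.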

For assay [2], the system named is Trypanosoma brucei Lister 427 VSG221 with APOL1 G2 recombinant protein. In words: APOL1 G2 trypanosome cell rescue assay (Example B5). It counts as cell-based. Conditions: geometric mean of at least 2 assay runs, † = single assay run. Summed up:
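Luminescent ATP read-out (CellTiter-Glo) of trypanosome viability after 20 h at 37° C. Bloodstream T. brucei Lister 427 VSG221, 250/well in modified HMI-9, were exposed to recombinant mature APOL1 (aa 28-398) from a 2 μg/mL addition, plus compound in 11-point 2-fold series.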

[3] abbreviates: Homo sapiens, HEK293, HEK293 clonal line overexpressing APOL1 G1.
[4] abbreviates: Trypanosoma brucei, 20 h, read-out: APOL1 G2 Trypanosome Rescue EC50, Trypanosoma brucei Lister 427 VSG221 with APOL1 G2 recombinant protein, 20 hours, CellTiter-Glo.
Where [5] appears, read: HEK293 clonal line overexpressing APOL1 G1.
The mark [6] stands for this setting: read-out: APOL1 G2 Trypanosome Rescue EC50, Trypanosoma brucei Lister 427 VSG221 with APOL1 G2 recombinant protein, 20 hours, CellTiter-Glo.

For the molecule `C[C@@H](COc1ccc(S(C)(=O)=O)cc1)N1CCC2(CC1)C(=O)Nc1ccc(Cl)cc12` (single isomer, unassigned) [Compound 10], the EC50 (as a rule, the midpoint of the concentration-response curve) in assay [1] (setting [3]) was 444 nM; in assay [2] (setting [4]) it was 93.3 nM.
As to `C[C@@H](COc1ccc(S(C)(=O)=O)cc1)N1CCC2(CC1)C(=O)Nc1ccccc12` (single isomer, unassigned) [Compound 12], the EC50 is 1140 nM in assay [1] (setting [3]) and 494 nM in assay [2] (setting [4]).
Turning to `C[C@@H](CN1CCC2(CC1)C(=O)Nc1ccccc12)Oc1ccc(S(C)(=O)=O)cc1` (single isomer, unassigned) [Compound 13], the EC50 is above 30000 nM in assay [1] (setting [3]) and above 4000 nM in assay [2] (setting [4]).
With `O=C1NCC2c3ccc(OCCN4CCC5(CC4)C(=O)Nc4ccc(Cl)cc45)cc3CCN12` (single isomer, unassigned) [Compound 116, (S) or (R)-5-chloro-1′-[2-({3-oxo-1H,2H,3H,5H,6H,10bH-imidazo[4,3-a]isoquinolin-8-yl}oxy)ethyl]-1,2-dihydrospiro[indole-3,4′-piperidin]-2-one], the EC50 is 234 nM in assay [1] (setting [3]) and 69.2 nM in assay [2] (setting [4]).
Regarding `O=C1NCC2c3ccc(OCCN4CCC5(CC4)C(=O)Nc4ccc(Cl)cc45)cc3CCN12` (single isomer, unassigned) [Compound 117, (R) or (S)-5-chloro-1′-[2-({3-oxo-1H,2H,3H,5H,6H,10bH-imidazo[4,3-a]isoquinolin-8-yl}oxy)ethyl]-1,2-dihydrospiro[indole-3,4′-piperidin]-2-one], the EC50 in assay [1] (setting [5]) was 174 nM; in assay [2] (setting [6]) it was 117 nM.
As for `N#Cc1ccc2c(c1)C1(CCN(CCOc3ccc4c(c3)CCN3C(=O)NCC43)CC1)C(=O)N2` (single isomer, unassigned) [Compound 120, (R) or (S)-2-oxo-1′-[2-({3-oxo-1H,2H,3H,5H,6H,10bH-imidazo[4,3-a]isoquinolin-8-yl}oxy)ethyl]-1,2-dihydrospiro[indole-3,4′-piperidine]-5-carbonitrile], the EC50 is above 5230 nM in assay [1] (setting [5]) and 346 nM in assay [2] (setting [4]).
In the case of `O=C1CCC2c3ccc(OCCN4CCC5(CC4)C(=O)Nc4ccc(Cl)cc45)cc3CCN12` (single isomer, unassigned) [Compound 122, (S) or (R)-5-chloro-1′-[2-({3-oxo-1H,2H,3H,5H,6H,10bH-pyrrolo[2,1-a]isoquinolin-8-yl}oxy)ethyl]-1,2-dihydrospiro[indole-3,4′-piperidin]-2-one], the EC50 in assay [1] (setting [3]) was 188 nM; in assay [2] (setting [4]), 108 nM.
Take `O=C1CCC2c3ccc(OCCN4CCC5(CC4)C(=O)Nc4ccc(Cl)cc45)cc3CCN12` (single isomer, unassigned) [Compound 123, (R) or (S)-5-chloro-1′-[2-({3-oxo-1H,2H,3H,5H,6H,10bH-pyrrolo[2,1-a]isoquinolin-8-yl}oxy)ethyl]-1,2-dihydrospiro[indole-3,4′-piperidin]-2-one]: the values for the EC50 in assay [1] (setting [5]) and in assay [2] (setting [6]) were 232 nM and 76.9 nM, respectively.
As for `CC(c1ccc(OCCN2CCC3(CC2)C(=O)Nc2ccc(C#N)cc23)cc1)S(C)(=O)=O` (single isomer, unassigned) [Compound 134, (S) or (R)-1′-{2-[4-(1-methanesulfonylethyl)phenoxy]ethyl}-2-oxo-1,2-dihydrospiro[indole-3,4′-piperidine]-5-carbonitrile], the EC50 in assay [1] (setting [3]) was 991 nM; in assay [2] (setting [4]), 277 nM.
Regarding `CC(c1ccc(OCCN2CCC3(CC2)C(=O)Nc2ccc(C#N)cc23)cc1)S(C)(=O)=O` (single isomer, unassigned) [Compound 135, (R) or (S)-1′-{2-[4-(1-methanesulfonylethyl)phenoxy]ethyl}-2-oxo-1,2-dihydrospiro[indole-3,4′-piperidine]-5-carbonitrile], the EC50 in assay [1] (setting [5]) was 1140 nM; in assay [2] (setting [6]), 303 nM.
With `CC(c1c(F)cc(OCCN2CCC3(CC2)C(=O)Nc2ccc(C#N)cc23)cc1F)S(C)(=O)=O` (single isomer, unassigned) [Compound 138, (S) or (R)-1′-{2-[3,5-difluoro-4-(1-methanesulfonylethyl)phenoxy]ethyl}-2-oxo-1,2-dihydrospiro[indole-3,4′-piperidine]-5-carbonitrile], the EC50 is 253 nM in assay [1] (setting [3]) and 165 nM in assay [2] (setting [4]).
Regarding `CC(c1c(F)cc(OCCN2CCC3(CC2)C(=O)Nc2ccc(C#N)cc23)cc1F)S(C)(=O)=O` (single isomer, unassigned) [Compound 139, (R) or (S)-1′-{2-[3,5-difluoro-4-(1-methanesulfonylethyl)phenoxy]ethyl}-2-oxo-1,2-dihydrospiro[indole-3,4′-piperidine]-5-carbonitrile], the EC50 in assay [1] (setting [5]) is 383 nM; in assay [2] (setting [6]), 147 nM.
For the molecule `CC(c1c(F)cc(OCCN2CCC3(CC2)C(=O)Nc2ccc(Cl)cc23)cc1F)S(C)(=O)=O` (single isomer, unassigned) [Compound 142, (S) or (R)-5-chloro-1′-{2-[3,5-difluoro-4-(1-methanesulfonylethyl)phenoxy]ethyl}-1,2-dihydrospiro[indole-3,4′-piperidin]-2-one], the values for the EC50 in assay [1] (setting [3]) and in assay [2] (setting [4]) were 192 nM and 35.3 nM, respectively.
Consider `CC(c1c(F)cc(OCCN2CCC3(CC2)C(=O)Nc2ccc(Cl)cc23)cc1F)S(C)(=O)=O` (single isomer, unassigned) [Compound 143, (R) or (S)-5-chloro-1′-{2-[3,5-difluoro-4-(1-methanesulfonylethyl)phenoxy]ethyl}-1,2-dihydrospiro[indole-3,4′-piperidin]-2-one], for which the EC50 in assay [1] (setting [5]) was 125 nM; in assay [2] (setting [6]), 21.1 nM.
Turning to `CN=S(C)(=O)c1ccc(OCCN2CCC3(CC2)C(=O)Nc2ccc(Cl)cc23)cc1` (single isomer, unassigned) [Compound 148, (S) or (R)-5-chloro-1′-(2-{4-[methyl(methylimino)oxo-λ^6-sulfanyl]phenoxy}ethyl)-1,2-dihydrospiro[indole-3,4′-piperidin]-2-one], the results for the EC50 in assay [1] (setting [3]) and in assay [2] (setting [4]) were 282 nM and 61.8 nM, respectively.
Regarding `CN=S(C)(=O)c1ccc(OCCN2CCC3(CC2)C(=O)Nc2ccc(Cl)cc23)cc1` (single isomer, unassigned) [Compound 149, (R) or (S)-5-chloro-1′-(2-{4-[methyl(methylimino)oxo-λ^6-sulfanyl]phenoxy}ethyl)-1,2-dihydrospiro[indole-3,4′-piperidin]-2-one], the EC50 is 246 nM in assay [1] (setting [5]) and 51.8 nM in assay [2] (setting [6]).
For `CN=S(C)(=O)c1ccc(OCCN2CCC3(CC2)C(=O)Nc2ccc(C#N)cc23)cc1` (single isomer, unassigned) [Compound 151, (S) or (R)-1′-(2-{4-[methyl(methylimino)oxo-λ^6-sulfanyl]phenoxy}ethyl)-2-oxo-1,2-dihydrospiro[indole-3,4′-piperidine]-5-carbonitrile], the EC50 is around 2500 nM in assay [1] (setting [3]) and 347 nM in assay [2] (setting [4]).
With `CN=S(C)(=O)c1ccc(OCCN2CCC3(CC2)C(=O)Nc2ccc(C#N)cc23)cc1` (single isomer, unassigned) [Compound 152, (R) or (S)-1′-(2-{4-[methyl(methylimino)oxo-λ^6-sulfanyl]phenoxy}ethyl)-2-oxo-1,2-dihydrospiro[indole-3,4′-piperidine]-5-carbonitrile], the values for the EC50 in assay [1] (setting [5]) and in assay [2] (setting [6]) were above 4170 nM and 416 nM, respectively.
As for `O=C1Nc2ccc(Cl)cc2C12CCN(CCOc1ccc(C3CCCS3(=O)=O)cc1)CC2` (single isomer, unassigned) [Compound 176, (S) or (R)-2-[4-(2-{5-chloro-2-oxo-1,2-dihydrospiro[indole-3,4′-piperidin]-1′-yl}ethoxy)phenyl]-1λ^6-thiolane-1,1-dione], the EC50 was 157 nM in assay [1] (setting [3]) and 44.6 nM in assay [2] (setting [4]).
For the molecule `O=C1Nc2ccc(Cl)cc2C12CCN(CCOc1ccc(C3CCCS3(=O)=O)cc1)CC2` (single isomer, unassigned) [Compound 177, (R) or (S)-2-[4-(2-{5-chloro-2-oxo-1,2-dihydrospiro[indole-3,4′-piperidin]-1′-yl}ethoxy)phenyl]-1λ^6-thiolane-1,1-dione], the EC50 in assay [1] (setting [5]) is 132 nM; in assay [2] (setting [6]) it was 84.4 nM.
On to `CS(=O)(=O)c1ccc(OCCN2CCC3(CC2)C(=O)Nc2c(C#N)cc(Cl)cc23)cc1` [Compound 9, 5-chloro-1′-[2-(4-methanesulfonylphenoxy)ethyl]-2-oxo-1,2-dihydrospiro[indole-3,4′-piperidine]-7-carbonitrile], for which the EC50 in assay [1] (setting [3]) is around 11500 nM; in assay [2] (setting [4]) it was 1320 nM.
As for `CS(=O)(=O)CCCn1ncc2cc(OCCN3CCC4(CC3)C(=O)Nc3ccc(Cl)cc34)ccc21` [Compound 14, 5-chloro-1′-(2-{[1-(3-methanesulfonylpropyl)-1H-indazol-5-yl]oxy}ethyl)-1,2-dihydrospiro[indole-3,4′-piperidin]-2-one], the EC50 in assay [1] (setting [3]) is 476 nM; in assay [2] (setting [4]), 127 nM.
As to `O=C1Nc2ccc(Cl)cc2C12CCN(CCOc1ccc3c(cnn3C3COC3)c1)CC2` [Compound 15, 5-chloro-1′-(2-{[1-(oxetan-3-yl)-1H-indazol-5-yl]oxy}ethyl)-1,2-dihydrospiro[indole-3,4′-piperidin]-2-one], the EC50 in assay [1] (setting [3]) was 279 nM; in assay [2] (setting [4]), 124 nM.
